Assay results from article PMC12396291, “DNA-encoded library screening uncovers potent DNMT2 inhibitors targeting a cryptic allosteric binding site” (iScience, 2025).
Several values for one entry are separate records, joined by “and”; a condition that tells them apart may be missing. Identical values can stand only once. Entries after “also recorded” stand apart in the source; their conditions may differ. Blank lines part the entries; values can stand above or below the molecule they belong to.

Assays:
[1] = Solubility remark from ITC titration; assay type: physicochemical; conditions: ITC buffer, remark in words
Procedure: (§1) The DNMT2 protein was purified via size exclusion chromatography eluting in isothermal titration calorimetry (ITC) buffer (50 mM sodium phosphate pH 8.0, 300 mM NaCl, 1 mM EDTA, 2 mM β-mercaptoethanol, 0.1% polysorbate-20) and directly used for measurements.[3] All compounds were dissolved in DMSO to a concentration of 5 mM and were then diluted in ITC buffer to a final concentration of 500 μM. DNMT2 was diluted to a final concentration of 50 μM with 10% DMSO to match the ligand stocks' DMSO concentration. For the ITC measurements, a MicroCal PEAQ-ITC Automated workstation (Malvern Panalytical) with a 200 μL Hastelloy cell and an injection syringe volume of 40 μL was used. All experiments were performed in triplicates at 25 °C unless otherwise noted. For each measurement, 19 compound injections (2 μL each) with an injection speed of 0.5 μL/s were added to the reaction cell containing DNMT2. The spacing time between sequential injections was 300 s, and the stirring speed was set to 750 rpm with a reference power of 42 μW. As control experiments, ligands were titrated into ITC buffer. Data analysis and fitting were carried out using the MicroCal PEAQ-ITC Analysis Software 1.21 and plotted in GraphPad Prism 8.0.1.

DNMT2 [2] = target: T1, DNMT2 (Homo sapiens, UniProt O14717); assay: ^3H-based methyltransferase enzyme activity assay (^3H-SAM incorporation into tRNA^Asp); assay type: biochemical
T1 construct: Recombinant human DNMT2 (full-length); His-tag; made in house; host or cells: E. coli
T1 sequence (O14717 1-391): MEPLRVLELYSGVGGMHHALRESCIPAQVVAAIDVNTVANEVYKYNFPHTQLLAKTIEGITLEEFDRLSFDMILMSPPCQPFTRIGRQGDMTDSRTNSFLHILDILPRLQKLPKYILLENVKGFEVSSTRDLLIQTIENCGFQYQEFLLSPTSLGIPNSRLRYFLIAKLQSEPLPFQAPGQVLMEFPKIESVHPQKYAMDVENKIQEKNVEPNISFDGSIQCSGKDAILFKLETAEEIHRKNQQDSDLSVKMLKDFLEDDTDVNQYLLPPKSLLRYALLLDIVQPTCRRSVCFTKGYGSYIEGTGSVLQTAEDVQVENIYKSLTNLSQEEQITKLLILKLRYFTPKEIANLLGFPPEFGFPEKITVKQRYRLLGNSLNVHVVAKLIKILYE
Procedure: Enzymatic DNMT2 inhibition assays were carried out in 100 mM Tris-HCl, pH 8.0, 100 mM NH4OAc, 0.1 mM EDTA, 10 mM MgCl2, and 10 mM DTT as described previously.[3]^,[4] First, the tRNA^Asp substrate was heated to 75 °C for 5 min and cooled down to room temperature (RT) before it was added to the reaction mixture to a final concentration of 5 μM. The reaction mixture contained 250 nM DNMT2 and the ligand compounds at variable concentrations (5% DMSO). Enzymatic reactions were started by the addition of 0.9 μM SAM as a mixture of ^3H-SAM (Hartmann Analytics) resp. cold SAM (NEB) to a final activity of 0.025 μCi μL^−1. Enzyme assays were carried out for 30 min at 37 °C. As a negative control served the reaction mixture without DNMT2 and as a positive control the reaction mixture without test compound. After 30 min, aliquots of 8 μL were taken from the reaction mixture and spotted on Whatman glass microfiber filters (GF/C, 25 mm). The RNA was precipitated on the filters with 5% ice-cold TCA for 15 min. […] Scintillation was measured with a scintillation counter (TriCarb Liquid Scintillation Analyzer 4810 TR; measurement time of 1 min). For IC50-value determination, compounds were analyzed at a minimum of six different concentrations in triplicates. IC50-values were calculated, evaluated, and plotted in GraphPad Prism 8.0.1.

DNMT2 [3] = target: T1, DNMT2; assay: MST displacement assay with fluorescent FTAD probe; assay type: binding; design: Fnorm (MST screening): unit not given here
Procedure: (§2) Screening for ligand binding and evaluation of dose-response affinity profiles was performed via microscale thermophoresis (MST) as described previously.[42] The measurements were conducted with a Nanotemper Technologies Monolith NT.115 device. All samples were measured in Monolith standard capillaries at 25 °C. The acquisition mode was set to “Nano-Blue” with an excitation power of 30% and a medium MST power, while the system was controlled using the software MO.Control (version 1.6.1) and for evaluation MO.Affinity Analysis (version 2.3) was used. The samples contained 2 μM DNMT2, 100 nM FTAD (5-FAM-triazolyl-adenosyl-Dab) probe, and 1.3% DMSO in MST buffer (50 mM HEPES, 150 mM NaCl, 1 mM dithiothreitol (DTT), 0.1% PEG-8000, 0.05% polysorbate-20, pH 7.4).[42] All compounds were employed at a final concentration of 100 μM for the initial ligand screening.

DNMT2 [4] = target: T1, DNMT2; assay: Isothermal titration calorimetry (ITC), direct titration; assay type: binding; conditions: direct titration at 25 °C; n.b. = no enthalpy signal observable
Procedure: as §1

DNMT2 [5] = target: T1, DNMT2; assay: Affinity selection-mass spectrometry (AS-MS); assay type: binding; conditions: 5 μM DNMT2, label-free
Procedure: Orthogonal KD-value determination for compound 3 was conducted by an affinity selection-mass spectrometry (AS-MS) assay according to Prudent et al.[43] and Simon et al.[67] Compound 3 was dissolved in DMSO (20 mM) and a dilution series in Tris buffer (25 mM Tris, 100 mM NaCl, pH 7.5) was prepared to give final ligand concentrations of 100 μM, 50 μM, 25 μM, 12.5 μM, 6.25 μM, 3.12 μM, 1.56 μM, and 0 μM. DNMT2 was diluted in Tris buffer (130 μM) and added to the dilution series to give a final concentration of 5 μM DNMT2. Zeba Spin Desalting columns 7K MWCO were used for the affinity-based separation. These columns were centrifuged at 2000g for 1 min to remove the storage buffer. 20 μL of the prepared samples were loaded to the columns, and the protein-ligand complex was eluted by centrifugation at 2000g for 2 min. The centrifuged solutions were diluted with 10 μL ACN and analyzed by LC/MS with an Agilent 1100 Series HPLC system. The data evaluation and subsequent binding affinity determination were performed with MestReNova (version 14.0.1) and GraphPad Prism 8.0.1.

DNMT2Δ47 = target: T2, DNMT2Δ47 (Homo sapiens, UniProt O14717, DEL191-237); assay: MST FTAD assay with deletion mutant; assay type: binding; conditions: DNMT2Δ47 2 μM, FTAD probe; read-out: affinity (MST KD) against DNMT2Δ47
T2 construct: His-tag; made in house; host or cells: E. coli (host printed only for the crystallization preparation)
T2 sequence (O14717 with tags, fused parts or gaps DEL191-237): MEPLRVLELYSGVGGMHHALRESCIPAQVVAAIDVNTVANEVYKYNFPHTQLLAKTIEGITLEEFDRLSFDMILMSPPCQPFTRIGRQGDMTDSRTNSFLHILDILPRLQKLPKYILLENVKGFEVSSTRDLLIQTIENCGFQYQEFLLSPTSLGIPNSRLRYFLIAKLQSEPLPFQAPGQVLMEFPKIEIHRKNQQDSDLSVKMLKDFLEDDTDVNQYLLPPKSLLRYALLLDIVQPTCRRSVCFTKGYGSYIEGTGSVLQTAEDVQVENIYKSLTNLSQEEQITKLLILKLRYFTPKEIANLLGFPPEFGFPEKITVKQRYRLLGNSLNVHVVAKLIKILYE
Procedure: as §2

[6] = Parallel artificial membrane permeation assay (PAMPA); assay type: in vitro ADME; conditions: 7 h incubation, duplicates
Procedure: To determine the passive permeability of selected DNMT2 ligands, a parallel artificial membrane permeation assay (PAMPA) was performed as described previously.[68] The experiment was performed in duplicates with Sigma-Aldrich MAIPNTR10 donor plates with 5 μL of an artificial membrane (1% w/v L-α-phosphatidylcholine in n-dodecane) per well. After incubation for 7 h, the acceptor solutions were evaluated by LC/MS (HP Agilent 1100 Series). The peak areas in the UV chromatogram (λ = 210 nm) were used to calculate the areas under the curve (AUCs).

DNMT2 in MOLM-13 cells = target: T3, DNMT2 in MOLM-13 cells (Homo sapiens, UniProt O14717); assay: Cellular thermal shift assay (CETSA); assay type: cell-based; conditions: MOLM-13, 50 μM, 16 h
T3 construct: engages DNMT2 in the MOLM-13 cellular environment, we performed cellular thermal shift assays (CETSA); endogenous in cells; host or cells: MOLM-13
T3 sequence (O14717 1-391): T1 sequence (O14717 1-391)
Procedure: After incubation for 16 h (37 °C, 5% CO2), the cell suspensions were collected. The cells were washed twice and then counted, followed by the addition of 1 mL PBS. The cell suspension was divided into eight parts, and then heated for 4 min at various temperatures (40, 43, 46, 49, 52, 55, 58 °C) in a PCR thermocycler. The cells were lysed through a freeze-thaw process using liquid nitrogen. The supernatant solutions were used for immunoblotting analysis. […] Proteins were separated by SDS−PAGE on 4–20% Criterion TGX Precast Protein Gels (Bio-Rad) and transferred to Amersham Protean 0.45 μm nitrocellulose membrane (Cytiva) using semi-dry transfer (25 V, 1 A, Towbin buffer). […] Subsequently, the membrane was incubated for 3 h at RT with IRDye 680RD Goat anti-Rabbit (1:1000, LICOR, 926–68071). Protein bands were visualized using a GE Healthcare Typhoon Trio biomolecular scanner, with laser excitation at 637 nm and fluorescence detection at 670 nm. The ImageLab software (Bio-Rad) was used for band quantification.

[7] = ATP-quantifying cell viability assay, 48 h; assay type: cell-based; conditions: human, MOLM-13, HCT, Huh-7, MDA-MB-231 and HEK293 cells, all cell lines
MOLM-13 cells = assay: Cell viability assay, doxorubicin co-treatment; assay type: cell-based; conditions: Homo sapiens; MOLM-13, doxorubicin 48 h; read-out: CC50 (only doxorubicin)
Procedure: Cell viability assays were conducted with MOLM-13 cells, Huh-7, MDA-MB-231, HEK293, and HCT MTase mutant cell lines (WT, knock-down DNMT2, and knock-down NSUN2) to investigate the DNMT2 inhibiting compounds’ cellular effect. Cells were cultured according to standard protocols: MOLM-13 (RPMI, 10% FBS, 1x Penicillin/Streptomycin, 37 °C, 5% CO2), Huh-7/MDA-MB-231/HEK293 (DMEM, 10% FBS, 1x Penicillin/Streptomycin, 37 °C, 5% CO2) and HCT (McCoys’s 5A Medium, 10% FBS, L-Glutamine, 1x Penicillin/Streptomycin, 37 °C, 5% CO2). Cell viability was assessed using Promega Cell Titer Glo assay kit (MOLM-13, Huh-7, MDA-MB-231, HEK293) or Lonza ViaLight Plus Cell Proliferation and Cytotoxicity BioAssay Kit (HCT cell lines). Briefly, 1000 cells were seeded in white Greiner half-area 96-well plates and incubated for 48 h with inhibitors/ligands from DMSO stocks (final: 0.1% DMSO) under standard cultivation conditions. Then, the cell titer reagent was added to each well according to the manufacturer’s protocols, and luminescence was measured using a Tecan Spark 10M plate reader (MOLM-13, Huh-7, MDA-MB-231, HEK293) or Molecular Devices FlexStation (HCT cell lines).

DNMT2-eIF4E interaction = target: T4, DNMT2-eIF4E interaction (Homo sapiens, UniProt O14717); assay: Pull-down competition assay; assay type: binding; conditions: 100 μM sinefungin, 100 μM 16 or 10 μM tRNA^Asp
T4 construct: Recombinant human DNMT2 (full-length); host or cells: E. coli (DNMT2)
T4 sequence (P06730 whole entry partner, one chain of several): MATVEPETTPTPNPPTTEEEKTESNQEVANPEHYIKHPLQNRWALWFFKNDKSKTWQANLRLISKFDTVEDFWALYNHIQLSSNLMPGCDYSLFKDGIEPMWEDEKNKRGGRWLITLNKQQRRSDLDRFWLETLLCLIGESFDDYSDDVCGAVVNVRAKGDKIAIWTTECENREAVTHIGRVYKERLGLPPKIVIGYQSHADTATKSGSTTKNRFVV
Procedure: (§3) For immobilization on streptavidin beads, DNMT2 was biotinylated using the EZ-Link Sulfo-NHS-LC-Biotinylation kit. A 20-fold excess of Sulfo-NHS-LC-Biotin (10 mM in water) was added to DNMT2 and incubated for 2 h on ice. […] The biotinylation level was estimated using a HABA assay included in the kit according to the manufacturer’s protocols.
(§4) For in vitro pull-down assays, biotinylated DNMT2 was immobilized on streptavidin-coated paramagnetic beads (GenScript Streptavidin MagBeads). For this, beads were washed with PBS buffer containing 0.05% Triton X-100, and subsequently, DNMT2 (30 μg per 50 μL beads) was immobilized for 45 min at RT. As a negative control, beads were treated with a protein-free buffered solution. Beads were washed with PBS buffer, and for each sample, 5 μL beads were added to either 1.5 μg of recombinant NonO protein (Active Motif) or 3.0 μg of recombinant eIF4E protein (Cayman). Beads were incubated for 1 h at RT, and subsequently, the supernatant was removed. […] The samples were incubated for 45 min at RT, and the supernatant was treated with 2 μL 5× Laemmli buffer. […] All samples were heated to 95 °C for 10 min and analyzed via SDS-PAGE. […] Protein bands were visualized using a GE Healthcare Typhoon Trio biomolecular scanner, with laser excitation at 488 nm and fluorescence detection at 580 nm.

DNMT2-NonO interaction = target: T5, DNMT2-NonO interaction (Homo sapiens, UniProt O14717); assay: Pull-down competition assay; assay type: binding; conditions: 100 μM SFG, 100 μM 16 or 10 μM tRNA^Asp
T5 construct: Recombinant human DNMT2 (full-length); host or cells: E. coli (DNMT2)
T5 sequence (O14717 1-391): T1 sequence (O14717 1-391)
T5 sequence (Q15233 1-471 partner): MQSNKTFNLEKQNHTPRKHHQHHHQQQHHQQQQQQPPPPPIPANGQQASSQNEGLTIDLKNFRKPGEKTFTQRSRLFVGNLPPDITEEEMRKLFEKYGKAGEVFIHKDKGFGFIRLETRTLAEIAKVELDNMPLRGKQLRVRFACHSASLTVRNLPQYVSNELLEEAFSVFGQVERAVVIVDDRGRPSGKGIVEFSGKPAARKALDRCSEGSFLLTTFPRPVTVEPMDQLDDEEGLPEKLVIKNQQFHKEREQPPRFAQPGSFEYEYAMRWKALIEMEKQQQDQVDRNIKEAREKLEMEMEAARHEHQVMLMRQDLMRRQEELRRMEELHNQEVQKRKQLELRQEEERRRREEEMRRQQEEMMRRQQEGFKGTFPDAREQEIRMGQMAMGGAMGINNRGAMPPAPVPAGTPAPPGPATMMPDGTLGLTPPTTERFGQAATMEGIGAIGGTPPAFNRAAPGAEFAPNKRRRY
Procedure: as §3, §4

SMILES: Nc1ncn([C@@H]2O[C@H](CO)[C@@H](O)[C@H]2O)c(=O)n1 [azacitidine]
CC50 at 48 h [7]: < 10 µM

SMILES: COc1cccc2c1C(=O)c1c(O)c3c(c(O)c1C2=O)C[C@@](O)(C(=O)CO)C[C@@H]3O[C@H]1C[C@H](N)[C@H](O)[C@H](C)O1 [doxorubicin]
CC50 (MOLM-13 cells): 0.045 ± 0.003 µM

SMILES: Nc1ncnc2c1ncn2[C@@H]1O[C@H](C[C@@H](N)CC[C@H](N)C(=O)O)[C@@H](O)[C@H]1O [sinefungin]
displacement of eIF4E from immobilized DNMT2 (DNMT2-eIF4E interaction): neither NonO nor eIF4E could be displaced
displacement of NonO from immobilized DNMT2 (DNMT2-NonO interaction): NonO could not be displaced

Second part, led by results:

solubility [1]: low solubility
SMILES: CNC(=O)[C@@H](Nc1nc(N2CCN(c3c(C)cccc3C)CC2)nc(N(C)c2cccc(C)c2)n1)[C@@H](C)OC(C)(C)C [Compound 2]

IC50 (DNMT2 [2]): 38.9 ± 6.9 µM
FTAD displacement in the MST assay (DNMT2 [3]; DEL hits, result in words): quantitative FTAD displacement
Kd (DNMT2 [3]; FTAD probe 100 nM, 2 μM DNMT2, n.b. = no thermophoresis shift observable): 48 µM and 48.2 µM
Fnorm (% displ.): FTAD displacement (DNMT2 [3]; ligand 100 μM, FTAD probe): 53%
Fnorm (MST screening) (DNMT2 [3]; ligand 100 μM, FTAD probe): 912.1
Kd (DNMT2 [4]): 5.3 µM and 5.31 µM
Kd (DNMT2 [5]): 8.4 ± 2.2 µM
Kd (DNMT2Δ47): 102 µM
thermal stabilization of DNMT2 (CETSA) (DNMT2 in MOLM-13 cells): no thermal stabilization occurred
SMILES: CCc1ccc(C(=O)NCC2(C(=O)NC(CC(=O)NCC(=O)NC)Cc3c[nH]c4ccccc34)CC2)cc1 (stereo not drawn) [Compound 3]
Papp (PAMPA) [6]: failed to pass through the artificial membrane; also recorded: below detection limit
